In patent publication US8394765B2, “Methods of treating obesity with two different anti-obesity agents” (Amylin Pharmaceuticals LLC, priority 2004, dated 2013):

Columns and labels:
Type in all cases: in vivo, rat
[1] = In-bred DIO (Levin) rats, amylin and leptin, body weight and NMR body composition (Example 2); conditions: two weeks, leptin 500 μg/kg/day, amylin 100 μg/kg/day, FIG. 6A
Description: They were housed individually in shoebox cages at 22 C in a 12/12-hour light dark cycle.
(§1) Body composition was measured prior to and after drug treatment using NMR (Echo Medical Systems, Houston, Tex.). For body composition measurements, rats were briefly placed (˜1 min) in a well-ventilated plexiglass tube that was then inserted into a specialized rodent NMR machine. Rats were scanned prior to pump implantation and on the final day of the experiment. This enabled the calculation of changes in actual grams of fat and dry lean tissue (e.g., grams of body fat after treatment−grams of body fat at baseline=change in grams of body fat) and changes in % body composition for fat and dry lean tissue (e.g., % body fat after treatment−% body fat at baseline=change in % body fat).

[2] = DIO (Levin) rats, amylin and CB-1 antagonist rimonabant, body weight and body composition (Example 5)
Description: These rats were developed by Barry Levin from a line of Crl:CD®(SD)BR rats that are prone to become obese on a diet relatively high in fat and energy. They were housed individually in shoebox cages at 22 C in a 12/12-hour light dark cycle. […] Rats were habituated to oral gavage for 1 week prior to treatment. Rimonabant was administered at a range of doses (0.1, 0.3, 1.0, 3.0. 10 mg/kg/day) by oral gavage. Amylin (dissolved in 50% DMSO sterile water) or vehicle was administered by mini-pump (100 μg/kg/day). Rimonabant was always delivered just prior to lights out. Food intake and body weight were measured at 1 and 2 weeks post-treatment. Body composition was measured prior to and after drug treatment using NMR (Echo Medical Systems, Houston, Tex.). For body composition measurements, rats were briefly placed (˜1 min) in a well-ventilated plexiglass tube that was then inserted into a specialized rodent NMR machine. Rats were scanned prior to pump implantation and on the final day of the experiment. This enabled the calculation of changes in actual grams of fat and dry lean tissue (e.g., grams of body fat after treatment−grams of body fat at baseline=change in grams of body fat) and changes in % body composition for fat and dry lean tissue (e.g., % body fat after treatment−% body fat at baseline=change in % body fat).

[3] = Pair-feeding experiment in DIO rats, amylin+leptin (Example 2); conditions: two weeks, ad libitum access to food, FIG. 7
Description: Amylin is known to have an anorectic effect on a recipient. In order to examine the effect of amylin+leptin in the context of an anorectic effect of amylin, a pair-feeding experiment was performed. DIO rats and drug treatment groups were established as described above. DIO rats in the vehicle, amylin, and amylin+leptin treatment groups had ad libitum access to food, while intake in the pair-fed leptin treatment was restricted to the amount consumed by the amylin-treated group. Body weight was recorded daily for the two weeks of treatment. […] The combination of amylin+leptin results in a decrease of about 12% in body weight relative to vehicle control.

[4] = Serum leptin levels by immunoassay in DIO prone and normal HSD rats after amylin (Example 3); conditions: amylin 100 μg/kg/day, 14 days, FIG. 8
Description: DIO prone and normal HSD rats were divided into three treatment groups. Two groups were implanted with subcutaneous osmotic mini-pumps (DURECT Corp., Cupertino, Calif.) designed to deliver vehicle or amylin (100 μg/kg/day) and the third group was pair-fed to the amount consumed by the amylin-treated group for a 14 day period. Serum leptin levels were determined by immunoassays using a commercial kit (Linco Research, Inc., St. Charles, Mo.). […] Thus, DIO prone rats are hyper-leptinemic.

[5] = DIO rats, amylin and exendin-4 analog, body weight and body composition (Example 6)
Description: as §1, with “[…]. Prior to drug administration rats had typically attained a mean body weight of 500 g Exendin-4 analog was administered by minipump at a range of doses (0.3, 1, 3, 10, 30 μg/kg/day). Amylin (dissolved in 50% DMSO in water) or vehicle was administered by mini-pump (100 μg/kg/day). Body weight and food intake was recorded daily. Body” for “Body”

[6] = DIO rats, amylin and phentermine, body weight and body composition (Example 4)
Description: The combination of amylin and catecholaminergic agonist, phentermine, were also tested for effects on changes in body weight and body composition. Phentermine is classically referred to as a catecholaminergic agonist as it actually hits NA/5-HT receptors. DIO male rats were fattened and divided into four treatment groups, as described above. Each group was implanted with subcutaneous osmotic mini-pumps and/or inserted with an oral gavage, designed to deliver vehicle, phentermine (10 mg/kg/day), amylin (100 μg/kg/day) or phentermine (10 mg/kg/day)+amylin (100 μg/kg/day) for a 14 day period. The mini-pump contained either vehicle (50% DMSO in water) or amylin while the oral gavage administered either sterile water or phentermine. Body weight was recorded daily and body composition was measured prior to and after drug treatment using NMR.

[7] = DIO rats, amylin and PYY(3-36), body weight and body composition (Example 7)
Description: Each group was implanted with subcutaneous osmotic mini-pumps, designed to deliver vehicle, PYY(3-36) (1000 μg/kg/day), amylin (100 μg/kg/day) or PYY(3-36) (1000 μg/kg/day)+amylin (100 μg/kg/day) for a 14 day period. PYY(3-36) was administered by mini-pump at a range of doses (100, 200, 400, 800, 1000 μg/kg/day). Amylin 100 μg/kg/day (dissolved in 50% DMSO sterile water), PYY(3-36) (dissolved in 50% DMSO sterile water) or vehicle was administered by mini-pump. Food intake and body weight was recorded daily. Body composition was measured prior to and after drug treatment using NMR (Echo Medical Systems, Houston, Tex.). For body composition measurements, rats were briefly placed (˜1 min) in a well-ventilated plexiglass tube that was then inserted into a specialized rodent NMR machine. Rats were scanned prior to pump implantation and on the final day of the experiment. This enabled the calculation of changes in actual grams of fat and dry lean tissue (e.g., grams of body fat after treatment−grams of body fat at baseline […]) and changes in % body composition for fat and dry lean tissue (e.g., % body fat after treatment−% body fat at baseline=change in % body fat).

[8] = DIO rats, amylin and sibutramine, body weight and body composition (Example 4)
Description: Rat amylin was dissolved in 50% DMSO in sterile water and sibutramine was dissolved in sterile water. Each group was implanted with subcutaneous osmotic mini-pumps designed to deliver vehicle, sibutramine (3 mg/kg/day) or amylin (100 μg/kg/day) for a 14 day period. Body weight and food intake were recorded daily. Body composition was measured prior to and after drug treatment using NMR (Echo Medical Systems, Houston, Tex.). For body composition measurements, rats were briefly placed (˜1 min) in a well-ventilated plexiglass tube that was then inserted into a specialized rodent NMR machine. Rats were scanned prior to pump implantation and on the final day of the experiment. This enabled the calculation of changes in actual grams of fat and dry lean tissue (e.g., grams of body fat after treatment−grams of body fat at baseline=change in grams of body fat) and changes in % body composition for fat and dry lean tissue (e.g., % body fat after treatment−% body fat at baseline=change in % body fat).

Substance: Rat amylin
- vehicle-corrected decrease in percent body weight [1]: 6%
- changes in body fat (fat mass) ([2]; after two weeks, FIG. 12B): Fat mass loss was evident
- changes in body protein (lean mass) ([2]; after two weeks, FIG. 12C): relatively equivalent increase in lean (protein) mass
- vehicle-corrected decrease in percent body weight ([2]; two weeks, rimonabant 3 mg/kg/day oral gavage, amylin 100 μg/kg/day, FIG. 12A): ~6%
- decrease in body weight relative to vehicle control [3]: ~6%
- serum (plasma) leptin levels ([4]; DIO prone rats): significantly reduced
- serum (plasma) leptin levels ([4]; normal HSD rats): significantly reduced
- changes in body fat (fat mass) ([5]; after two weeks, FIG. 15B): relatively equivalent decrease in fat mass
- changes in body protein (lean mass) ([5]; after two weeks, FIG. 15C): relatively equivalent increase in lean (protein) mass
- vehicle-corrected decrease in percent body weight ([5]; two weeks, exendin-4 analog 10 μg/kg/day, amylin 100 μg/kg/day, FIG. 15A): ~6%
- changes in body fat (fat mass) ([6]; after two weeks, FIG. 11B): greater amount of fat mass loss
- changes in body protein (lean mass) ([6]; after two weeks, FIG. 11C): preserved lean (protein) mass
- vehicle-corrected decrease in percent body weight ([6]; two weeks, phentermine 10 mg/kg/day oral gavage, amylin 100 μg/kg/day, FIG. 11A): ~7%
- changes in body protein (lean mass) ([7]; after two weeks, FIG. 16C): increase in lean (protein) mass
- changes in body fat (fat mass loss) ([7]; after two weeks, order PYY(3-36) alone, amylin alone, combination, FIG. 16B): Increasing amount of fat mass loss
- vehicle-corrected decrease in percent body weight ([7]; two weeks, PYY(3-36) 1000 μg/kg/day, amylin 100 μg/kg/day, FIG. 16A): ~7%
- changes in body fat (fat mass) ([8]; after two weeks, FIG. 10B): Fat mass loss was evident
- changes in body protein (lean mass) ([8]; after two weeks, FIG. 10C): increase in lean (protein) mass
- vehicle-corrected decrease in percent body weight ([8]; two weeks, sibutramine 3 mg/kg/day, amylin 100 μg/kg/day, FIG. 10A): ~6%
